In experiment [1] the test system is Rabbit cartilage explants. Description: Ex vivo glycosaminoglycans (GAG) release assay. To be noted: for activity at 6.25 µg/mL / activity at 12.5 µg/mL / activity at 25 µg/mL / activity at 50 µg/mL / activity at 100 µg/mL: Oryctolagus cuniculus, 24 h; for activity at 6.25 µg/mL: 6.25 μg/ml; for activity at 12.5 µg/mL: 12.5 μg/ml; for activity at 25 µg/mL: 25 μg/ml; for activity at 50 µg/mL: 50 μg/ml; for activity at 100 µg/mL: 100 μg/ml; for protective effect on rhIL-1α-mediated PG degradation / GAG release: rhIL-1α 5 ng/ml. The format is cell-based. On the procedure: Articular cartilage from hock joints of rabbits (2.5 kg body weight) was removed immediately after each animal was sacrificed and articular cartilage explants were obtained by following the method described by Sandy et al. (Biochem. Biophy Acta 543:36, 1978). Briefly, after the articular surfaces were surgically exposed under sterile conditions, approximately 200-220 mg articular surfaces per joint were dissected and submerged into complete medium (DMEM, supplemented with heat inactivated 5% FBS; penicillin 100 U/ml; streptomycin 100 ug/ml). They were then rinsed several times with the complete medium and incubated for 1 to 2 days at 37° C. in a humidified 5% CO2/95% air incubator for stabilization. The complete medium was replaced with a basal medium (DMEM, supplemented with heat-inactivated 1% FBS, 10 mM HEPES, and penicillin 100 U/ml streptomycin 100 μg/ml). Approximately 30 mg cartilage pieces (2×3×0.35 mm/piece) were placed in 24-well plates and treated with given concentrations of test agents. After pretreatment for 1 h, 5 ng/ml of rhIL-1α was added to the culture medium and further incubated at 37° C. in a humidified 5% CO2/95% air incubator. The culture medium was collected 24 h later and stored at −20° C. until assay.
The amount of sulphated GAGs (e.g., released from proteoglycans) in the medium at the end of the reaction reflects the amount of articular cartilage degradation, which was determined using the commercially available 1,9-dimethy-methylene blue method according to the instructions of the manufacturer (Blyscan™ assay, Accurate Chemical and Scientific Corp., Westbury, N.Y.).

For the next experiment, the system named is Lewis rats. Description: Carrageenan-induced rat paw edema model (paw edema and pain sensitivity). The format is in vivo. To be noted: for Pain sensitivity (Analgesia), percent change vs. vehicle, 1 hr / Paw Edema (Inflammation), percent change vs. vehicle, 1 hr: 1 hr after treatment; for Pain sensitivity (Analgesia), percent change vs. vehicle, 3 hr / Paw Edema (Inflammation), percent change vs. vehicle, 3 hr: 3 hr after treatment; for Pain sensitivity (Analgesia), percent change vs. vehicle, 5 hr / Paw Edema (Inflammation), percent change vs. vehicle, 5 hr: 5 hr after treatment; for analgesic and anti-inflammatory activity: oral, rosmarinic acid 200 mg/kg, eriocitrin 100 mg/kg, NAG 166 mg/kg; for Pain sensitivity, percent change of vehicle / Paw edema, percent change of vehicle: 100 mg/kg oral 1 hr after carrageenan, female Lewis rats. As to the method:
Local inflammation was induced by intraplantar injection of carrageenan λ (Sigma, St. Louis, Mo.; 100 μl of 1% [w/v] in saline) into the plantar surface of right hind paw of sedated rat (with 2.5% isoflurane) at time 0 (T=0) (Gamache et al., J Neurosurg. 65:679, 1986; Guay et al., J. Biol. Chem. 279:24866, 2004; Chou et al., Anesth. Analg. 97:1724, 2003). Rats were acclimated in a procedure room for 20-30 minutes before each measurement was taken. Allodynia was evaluated by measuring responsiveness to the tip of a Randell-Selitto paw pressure test applied perpendicular to the central plantar surface of the right hind paw. A positive response to the applied pressure, noted by sharp withdrawal of the paw, was recorded automatically by an electronic Von Frey Anesthesiometer (2390 series Electrovonfrey, IITC, Woodland Hills, Calif.) (Vivancos et al., Braz. J. Med. Biol. Res. 37:391, 2004). Mechanical allodynia was evaluated before carrageenan inoculation, and thereafter at 1 hr, 2 hr, 4 hr and 6 hr. Paw edema volume was measured with the use of Plethysmometer (IITC, Woodland Hills, Calif.; Model 520) at time 0 (before carrageenan), and then 1 hr, 2 hr, 4 hr, and 6 hr after carrageenan injection. Animals (N=5 per group) were orally gavaged with a positive control ibuprofen (Spectrum Chemical MFG, Gardena, Calif.) (100 or 200 mg/kg); test articles such as: extracts, and combinations of extracts at various doses from 100, 200, 300 to 400 mg/kg and vehicle control (propylene glycol) were given 1 hour after carrageenan inoculation unless specified otherwise.
(Carrageenan injected into the paw causes an acute inflammation.)

Setting [2] is: rabbit cartilage explants with rhIL-1α 5 ng/ml (=100).
Where [3] appears, read: 100 mg/kg oral, listed as eriocitrin.
Setting [4] is: rhIL-1α 5 ng/ml (IL-1α alone = 100).

The record followed here is US20230190852A1, “COMPOSITIONS AND METHODS FOR JOINT HEALTH” (Unigen, Inc., priority 2013, published 2023).

Marks after values point to notes of the source that are not given here.

With `COc1cc(O)c(CC=C(C)C)c(O)c1C(=O)/C=C/c1ccc(O)cc1` [Compound 13, xanthohumol], in experiment [1] (setting [2]), the activity at 6.25 µg/mL turned out to be 77.4%, the activity at 12.5 µg/mL came out at 55.3%, the activity at 25 µg/mL is 59.2% and the activity at 50 µg/mL is 51.2%.

For the compound `COc1cc(O)c(CC=C(C)C)c2c1C(=O)CC(c1ccc(O)cc1)O2` (stereo not drawn) [Compound 14, isoxanthohumol], in experiment [1] (setting [2]), the activity at 6.25 µg/mL was determined as 97.8%, the activity at 12.5 µg/mL worked out at 73.5%, the activity at 25 µg/mL stood at 41.7% and the activity at 50 µg/mL was determined as 37.3%.

As for `CC(C)=CCC12Oc3c(c(O)cc(O)c3C3C=C(C)CC(c4ccc(O)cc4O)C3C(=O)c3ccc(O)cc3O)C(=O)C1(O)Oc1cc(O)ccc12` (stereo not drawn) [Compound 15, cathayanon A], in experiment [1] (setting [2]), the activity at 6.25 µg/mL amounted to 101%, the activity at 12.5 µg/mL was found to be 99.1%, the activity at 25 µg/mL was 81.3% and the activity at 50 µg/mL came out at 72.4%.

On to `C[C@@H]1O[C@@H](OC[C@H]2O[C@@H](Oc3cc(O)c4c(c3)O[C@H](c3ccc(O)c(O)c3)CC4=O)[C@H](O)[C@@H](O)[C@@H]2O)[C@H](O)[C@H](O)[C@H]1O` [Eriocitrin], for which, in the experiment with Lewis rats (100 mg/kg oral), the “Pain sensitivity (Analgesia), percent change vs. vehicle, 1 hr” value is on record as 20.4* %; the “Paw Edema (Inflammation), percent change vs. vehicle, 1 hr” value was found to be 17.2%; the “Pain sensitivity (Analgesia), percent change vs. vehicle, 3 hr” value was 36.4* %; the “Paw Edema (Inflammation), percent change vs. vehicle, 3 hr” value was 36.0* %. In the experiment on Lewis rats (100 mg/kg oral), the “Pain sensitivity (Analgesia), percent change vs. vehicle, 5 hr” value is 25.2* % and the “Paw Edema (Inflammation), percent change vs. vehicle, 5 hr” value was 30.0* %. In addition, in the experiment with Lewis rats (setting [3]), the “Pain sensitivity (Analgesia), percent change vs. vehicle, 1 hr” value was found to be 20.4%; the “Pain sensitivity (Analgesia), percent change vs. vehicle, 3 hr” value is given as 36.4%; the “Paw Edema (Inflammation), percent change vs. vehicle, 3 hr” value worked out at 36.0%; the “Pain sensitivity (Analgesia), percent change vs. vehicle, 5 hr” value came to 25.2%. Moreover, the “Paw Edema (Inflammation), percent change vs. vehicle, 5 hr” value in the experiment on Lewis rats (setting [3]) came out at 30.0%. In the experiment on Lewis rats, the “analgesic and anti-inflammatory activity” value was “significant anti-inflammatory and analgesic activities”.

For the compound `CC(C)=CCc1c(-c2ccc(O)cc2O)oc2c(C3C=C(C)CC(c4ccc(O)cc4O)C3C(=O)c3ccc(O)cc3O)c(O)cc(O)c2c1=O` (stereo not drawn) [Kuwanon G], in experiment [1] (setting [4]), the activity at 25 µg/mL came to 56.6%, the activity at 50 µg/mL worked out at 48% and the activity at 100 µg/mL came out at 44.4%. Also, in the experiment on Lewis rats (1 hr), the “Pain sensitivity, percent change of vehicle” value is 33.3* % and the “Paw edema, percent change of vehicle” value is recorded as 36.5* %. In addition, in the experiment with Lewis rats (3 hr), the “Pain sensitivity, percent change of vehicle” value is reported as 40.5* % and the “Paw edema, percent change of vehicle” value was 37.7* %. In the experiment on Lewis rats (5 hr), the “Pain sensitivity, percent change of vehicle” value is given as 31.2* % and the “Paw edema, percent change of vehicle” value is listed as 29.3* %.

Regarding `CC(C)=CCc1c(-c2ccc(O)cc2O)oc2c3c(cc(O)c2c1=O)OC(C)(C)C=C3` [Morusin], in experiment [1] (setting [4]), the activity at 25 µg/mL was determined as 48.4%, the activity at 50 µg/mL was 49.9% and the activity at 100 µg/mL is 33.6%. The “protective effect on rhIL-1α-mediated PG degradation / GAG release” value in experiment [1] is “strong inhibitory effect”. Also, in the experiment on Lewis rats (1 hr), the “Pain sensitivity, percent change of vehicle” value is recorded as 33.3* % and the “Paw edema, percent change of vehicle” value is given as 37.3* %. For the same compound, in the experiment with Lewis rats (3 hr), the “Pain sensitivity, percent change of vehicle” value is reported as 38.5* % and the “Paw edema, percent change of vehicle” value is reported as 40.0* %. For the same compound, in the experiment on Lewis rats (5 hr), the “Pain sensitivity, percent change of vehicle” value is on record as 30.2* % and the “Paw edema, percent change of vehicle” value is on record as 38.0* %.

As for `OC[C@H]1O[C@@H](Oc2cc(O)cc(/C=C/c3ccc(O[C@@H]4O[C@H](CO)[C@@H](O)[C@H](O)[C@H]4O)cc3O)c2)[C@H](O)[C@@H](O)[C@@H]1O` [Mulberoside A, mulberroside A], in experiment [1] (setting [4]), the activity at 25 µg/mL stood at 73.1%, the activity at 50 µg/mL was 75.8% and the activity at 100 µg/mL stood at 70.5%. Moreover, the “protective effect on rhIL-1α-mediated PG degradation / GAG release” value in experiment [1] is recorded as “strong inhibitory effect”. In the experiment with Lewis rats (1 hr), the “Pain sensitivity, percent change of vehicle” value is listed as 54.2* % and the “Paw edema, percent change of vehicle” value is listed as 48.4* %. For the same compound, in the experiment with Lewis rats (3 hr), the “Pain sensitivity, percent change of vehicle” value was 52.2* % and the “Paw edema, percent change of vehicle” value was 50.6* %. In the experiment with Lewis rats (5 hr), the “Pain sensitivity, percent change of vehicle” value was 35.5* % and the “Paw edema, percent change of vehicle” value is reported as 37.3* %.

As to `Oc1cc(O)cc(/C=C/c2ccc(O)cc2O)c1` [Oxyresveratrol], the activity at 25 µg/mL in experiment [1] (setting [4]) was found to be 59.8%. Moreover, the “protective effect on rhIL-1α-mediated PG degradation / GAG release” value in experiment [1] is given as “strong inhibitory effect”. Moreover, the “Pain sensitivity, percent change of vehicle” value is 53.3* % with Lewis rats (1 hr), 54.8* % with Lewis rats (3 hr) and 38.5* % in the experiment with Lewis rats (5 hr). Also, the figures for the “Paw edema, percent change of vehicle” value in the experiment with Lewis rats (1 hr), in the experiment on Lewis rats (3 hr) and with Lewis rats (5 hr) were 44.7* %, 54.5* % and 38.3* %, respectively.

With `O=C(/C=C/c1ccc(O)c(O)c1)O[C@H](Cc1ccc(O)c(O)c1)C(=O)O` [RA, Rosmarinic acid], in the experiment with Lewis rats (200 mg/kg oral), the “Pain sensitivity (Analgesia), percent change vs. vehicle, 1 hr” value turned out to be 38.9%; the “Paw Edema (Inflammation), percent change vs. vehicle, 1 hr” value worked out at 29.9%; the “Pain sensitivity (Analgesia), percent change vs. vehicle, 3 hr” value was 45.0%; the “Paw Edema (Inflammation), percent change vs. vehicle, 3 hr” value is listed as 35.7%. In addition, in the experiment on Lewis rats (200 mg/kg oral), the “Pain sensitivity (Analgesia), percent change vs. vehicle, 5 hr” value came to 30.6% and the “Paw Edema (Inflammation), percent change vs. vehicle, 5 hr” value was 34.6%. For the same compound, the “analgesic and anti-inflammatory activity” value in the experiment on Lewis rats was “significant anti-inflammatory and analgesic activities”.

For the compound `CC1(C)C=Cc2c(ccc3c2OC[C@@H](c2ccc(O)cc2O)C3)O1` [glabridin], in experiment [1] (setting [2]), the activity at 6.25 µg/mL turned out to be 66.1%, the activity at 12.5 µg/mL turned out to be 47.9%, the activity at 25 µg/mL was 47.5% and the activity at 50 µg/mL came out at 46.3%.
